Usually IC50 stands for the concentration that gives 50% inhibition.

Holding throughout (type): cell-based
For assay [1], the system named is HUVEC (human umbilical vein endothelial cell). Briefly: MTT antiproliferative assay, HUVEC. The conditions noted are these: MTT assay, 48 h incubation. The procedure: (§1) Two series of new tetrahydropyridothienopyrimidines were evaluated for their cytotoxicity against a panel of cell lines, including MCF-7 (breast cancer), SW480 (colon cancer), PC-3 (prostate cancer), HEPG-2 (liver cancer) and HUVEC (human umbilical vein endothelial cell) using 3-(4,5-dimethyl- thiazol-2-yl)-2,5-diphenyltetrazolium bromide (MTT) assay. Sorafenib was used as a positive control. The cytotoxicity is expressed as the concentration that inhibits 50% of cell viability (IC50). […] The preliminary SAR is evaluated on the basis of cytotoxicity results of phenyl derivatives (11a–k) and pyridine derivatives (11l–11y).The mesomeric effect didn’t improve the cytotoxicity of compound 11d in the first series.
(§2) Cytotoxicity of the compounds was measured by detecting the ability of cells in transforming MTT into a purple formazan dye. The different cell lines were provided by the National Cell Bank of Iran (Pastor Institute, Tehran, Iran). The required materials and reagents were purchased from Sigma. After the cell culture in RPMI-1640 medium and DMEM containing 10% FBS (Gibco, Milano, Italy), the suspension of MCF-7 (7000) and other cells (5000) were poured into 96 well plates and incubated in a humidified incubator containing 5% CO2 at 37 °C for 24 h. Subsequently, a solution of the compounds in DMSO was added to these plates and incubated for 48 h. After incubation, the solution of 5% 3-(4,5-Dimethyl-2-thiazolyl)-2,5-diphenyl-2H-tetrazolium bromide (MTT) was added to all the wells and incubation was continued for another 4 h. The record of color intensity of the formazan solution was at 570 nm by Bio-Rad microplate reader (Model 680) which reflects the cell growth condition.
For orientation: Formazan colour is commonly taken as a measure of viable cells.

Assay [2] deals with HEPG-2 (liver cancer). The experiment in a line: MTT antiproliferative assay, HEPG-2. The procedure:
as §1, §2

Assay [3] deals with SW480 (colon cancer). The experiment in a line: MTT antiproliferative assay, SW480. The method, then: as §1, §2
Assay [4] relates to MCF-7 (breast cancer). The experiment in a line: MTT antiproliferative assay, MCF-7. The method, then: as §1, §2
Assay [5] deals with PC-3 (prostate cancer). Briefly: MTT antiproliferative assay, PC-3. The conditions noted are these: 48 h incubation. The method, then:
as §1, §2

Where [6] appears, read: Homo sapiens, HepG2, 48 h incubation.
The mark [7] stands for this setting: Homo sapiens, SW480, 48 h incubation.
Setting [8] is: Homo sapiens, MCF7, 48 h incubation.

For the compound `Cc1ccc(NC(=O)Nc2nnc(Sc3ncnc4sc5c(c34)CCN(Cc3ccccc3)C5)s2)cc1` [Compound 11c, 1-(5-((7-benzyl-5,6,7,8-tetrahydropyrido[4',3':4,5]thieno[2,3-d]pyrimidin-4-yl)thio)-1,3,4-thiadiazol-2-yl)-3-(p-tolyl)urea], the IC50 in assay [1] (Homo sapiens, HUVEC) was 26.12 ± 0.15 µM; in assay [2] (setting [6]) it was 24.6 ± 0.39 µM; in assay [3] (setting [7]), 70.2 ± 2.71 µM; in assay [4] (setting [8]), 42.87 ± 0.32 µM; in assay [5], 32.21 ± 0.3 µM.

On to `O=C(Nc1ccc(Cl)cc1)Nc1nnc(Sc2ncnc3sc4c(c23)CCN(Cc2ccccc2)C4)s1` [Compound 11g, 1-(5-((7-benzyl-5,6,7,8-tetrahydropyrido[4',3':4,5]thieno[2,3-d]pyrimidin-4-yl)thio)-1,3,4-thiadiazol-2-yl)-3-(4-chlorophenyl)urea], for which the IC50 in assay [1] (Homo sapiens, HUVEC) was 27.29 ± 0.19 µM; in assay [2] (setting [6]), 46.96 ± 0.35 µM; in assay [3] (setting [7]), 56.5 ± 1.28 µM; in assay [4] (setting [8]) it was 62.4 ± 2.94 µM; in assay [5] it was 41.6 ± 1.1 µM.

With `Cc1ccc(NC(=O)Nc2nnc(Sc3ncnc4sc5c(c34)CCN(Cc3ccccc3)C5)s2)cc1Cl` [Compound 11i, 1-(5-((7-benzyl-5,6,7,8-tetrahydropyrido[4',3':4,5]thieno[2,3-d]pyrimidin-4-yl)thio)-1,3,4-thiadiazol-2-yl)-3-(3-chloro-4-methylphenyl)urea], the IC50 in assay [1] (Homo sapiens, HUVEC) is 24.63 ± 0.22 µM; in assay [2] (setting [6]) it was 3.33 ± 0.07 µM; in assay [3] (setting [7]), 69.6 ± 1.88 µM; in assay [4] (setting [8]), 50.8 ± 0.54 µM; in assay [5], 41.8 ± 1.22 µM.

On to `O=C(Nc1ccc(Cl)c(C(F)(F)F)c1)Nc1nnc(Sc2ncnc3sc4c(c23)CCN(Cc2ccccc2)C4)s1` [Compound 11k, 1-(5-((7-benzyl-5,6,7,8-tetrahydropyrido[4',3':4,5]thieno[2,3-d]pyrimidin-4-yl)thio)-1,3,4-thiadiazol-2-yl)-3-(4-chloro-3-(trifluoromethyl)phenyl)urea], for which the IC50 in assay [1] (Homo sapiens, HUVEC) amounted to 37.56 ± 0.31 µM; in assay [2] (setting [6]) it was 28.46 ± 0.25 µM; in assay [3] (setting [7]), 63.5 ± 1.37 µM; in assay [4] (setting [8]), 24.66 ± 0.24 µM; in assay [5], 23.15 ± 0.21 µM.

On to `COc1ccc(NC(=O)Nc2nnc(Sc3ncnc4sc5c(c34)CCN(Cc3ccncc3)C5)s2)cc1` [Compound 11p, (4-Methoxyphenyl)-3-(5-((7-(pyridin-4-ylmethyl)-5,6,7,8-tetrahydropyrido[4',3':4,5]thieno[2,3-d]pyrimidin-4-yl)thio)-1,3,4-thiadiazol-2-yl)urea], for which the IC50 in assay [1] came to 2.86 ± 0.05 µM; in assay [2] (48 h incubation) it was 67.4 ± 0.33 µM; in assay [3] (48 h incubation), 29.4 ± 1.01 µM; in assay [4] (48 h incubation), 3.72 ± 0.55 µM; in assay [5], 43.5 ± 1.62 µM.

Consider `O=C(Nc1ccc(F)cc1)Nc1nnc(Sc2ncnc3sc4c(c23)CCN(Cc2ccncc2)C4)s1` [Compound 11r, 1-(4-fluorophenyl)-3-(5-((7-(pyridin-4-ylmethyl)-5,6,7,8-tetrahydropyrido[4',3':4,5]thieno[2,3-d]pyrimidin-4-yl)thio)-1,3,4-thiadiazol-2-yl)urea], for which the IC50 is 48.2 ± 0.62 µM in assay [1] (Homo sapiens, HUVEC); 67.5 ± 1.38 µM in assay [2] (setting [6]); 66.3 ± 1.24 µM in assay [3] (setting [7]); 5.69 ± 0.03 µM in assay [4] (setting [8]); 18.98 ± 0.11 µM in assay [5].

Regarding `O=C(Nc1cccc(Cl)c1)Nc1nnc(Sc2ncnc3sc4c(c23)CCN(Cc2ccncc2)C4)s1` [Compound 11t, 1-(3-chlorophenyl)-3-(5-((7-(pyridin-4-ylmethyl)-5,6,7,8-tetrahydropyrido[4',3':4,5]thieno[2,3-d]pyrimidin-4-yl)thio)-1,3,4-thiadiazol-2-yl)urea], the IC50 in assay [1] (Homo sapiens, HUVEC) is 67 ± 2.02 µM; in assay [2] (setting [6]) it was 85 ± 3.4 µM; in assay [3] (setting [7]), 14.6 ± 0.32 µM; in assay [4] (setting [8]) it was 12.68 ± 0.05 µM; in assay [5], 3.02 ± 1.12 µM.
